# Data published in patent publication US20060040997A1, “Benzthiazole-3 oxides useful for the treatment of proliferative disorders” (priority 2003, published 2006).
# Where two headings read alike, the source gives them in different places.
# Assays:
# human PLK1 = target: T1, human PLK1 (Homo sapiens, UniProt P53350); assay: PLK1 protein kinase assay (CDC25C phosphorylation, [γ-32P]-ATP); format: biochemical; conditions: read-out: PLK1 kinase inhibition IC50
# T1 construct: A full-length human PLK1 (XM—047240) (amino acids 1-603) clone; His6 (N); made in house; host or cells: Sf9 insect cells (baculovirus) for PLK1; E. coli BL21(DE3) RIL for CDC25C
# T1 sequence (P53350 whole entry, the tested form may be a part): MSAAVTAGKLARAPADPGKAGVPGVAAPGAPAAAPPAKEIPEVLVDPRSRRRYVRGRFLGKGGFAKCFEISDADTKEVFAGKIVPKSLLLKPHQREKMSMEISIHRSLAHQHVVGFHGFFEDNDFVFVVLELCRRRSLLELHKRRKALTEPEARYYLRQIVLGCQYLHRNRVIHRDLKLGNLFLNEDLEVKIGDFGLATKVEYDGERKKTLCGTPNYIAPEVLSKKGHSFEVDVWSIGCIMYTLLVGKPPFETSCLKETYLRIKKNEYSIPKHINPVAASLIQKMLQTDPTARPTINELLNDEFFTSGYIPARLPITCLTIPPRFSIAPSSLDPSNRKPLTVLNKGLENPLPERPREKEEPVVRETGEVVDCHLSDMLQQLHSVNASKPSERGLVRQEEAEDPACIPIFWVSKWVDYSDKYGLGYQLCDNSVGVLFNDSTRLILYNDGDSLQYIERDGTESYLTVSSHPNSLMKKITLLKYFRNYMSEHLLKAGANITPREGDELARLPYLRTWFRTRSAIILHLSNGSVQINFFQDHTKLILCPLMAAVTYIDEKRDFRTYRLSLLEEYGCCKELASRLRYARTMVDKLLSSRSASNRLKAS
# Excerpt: A full-length human CDC25C clone was isolated by PCR from HeLa mRNA and was inserted on a BamHI-HindIII fragment into pRsetA. The amino terminal fragment of CDC25C (encoding residues 1-300) was excised from this vector and inserted into pET28a (between the NcoI and BamHI sites). Expression was under the control of the T7 promoter, and the encoded protein contained a His6 tag at the carboxyl terminus. The vector was transformed into E. coli strain BRL(DE3) pLysS for expression experiments. CDC25C was expressed in BL21(DE3) RIL bacteria cells, grown in LB media at 37° C. until OD600nm of 0.6 was reached. The expression was induced with 1 mM IPTG and the bacterial culture was grown further for 3 h. The bacteria were harvested by centrifugation and the cell pellet was re-suspended in 50 mM Tris pH 7.5 and 10% sucrose, flash frozen, and stored at −70° C. until used. CDC25C protein was purified from E. coli inclusion bodies. The inclusion bodies were isolated in a buffer (50 mM Tris pH 8.0, 2 mM EDTA, 100 mM NaCl, 0.5% triton X-100). After denaturation in the presence of 6 M urea, the protein was refolded via slow dialysis of the urea. The protein was stored in 25 mM Tris pH 8.0, 100 mM NaCl, 1 mM DTT, 1 mM EDTA and 10% glycerol at −70° C. until used.
# A full-length human PLK1 (XM—047240) (amino acids 1-603) clone was amplified from a foetal lung cDNA library using primers incorporating restriction enzyme sites. […] The 3′ primer ([…]) incorporated a stop codon prior to the EcoR1 site. The PCR product was cloned into the Nhe1/EcoR1 sites of a baculovirus expression vector, pSSP 1. […] Cells were only used for expression in logarithmic growth phase. […] The flasks were incubated at 27° C., with shaking at 100 r.p.m. for 48 h. On harvest, cell density and viability was determined, the cultures spun down at 2500 r.p.m. for 5 min and washed with ice-cold phosphate-buffered saline. The wash was re-spun at the same speed and the pellet was snap frozen. PLK1 protein was purified on a metal affinity column.
# PLK1 protein kinase assays were carried out using a 96-well plate format by incubating CDC25C (2 μg/well) with PLK1 (1 μg/well) in 20 mM Tris/HCl buffer pH 7.5, supplemented with 25 mM β-glycerophosphate, 5 mM EGTA, 1 mM DTT and 1 mM NaVO3. Serial dilutions of test compound in assay buffer were added. […] The reaction mixture was incubated at 30° C. for 1 h, then stopped with 75 mM aq orthophosphoric acid, transferred onto a 96-well P81 filter plate (Whatman), dried, and the extent of CDC25C phosphorylation was assessed by scintillation counting using a Packard TopCount plate reader. The raw assay data was analysed by non-linear regression analysis parameters and IC50 values were determined using the equation: y=A+((B−A)/(1+((C/x)ˆD))), where y is % inhibition, A is minimum inhibition, B is maximum inhibition, C is EC50, and D is the slope factor.
# HELA = assay: 72-h MTT cellular proliferation assay, HELA; format: cell-based; conditions: Homo sapiens, read-out: Anti-proliferative activity on tumour cell lines (MTT assay) HELA IC50
# Experimental: (§1) Cellular proliferation assays using human tumour cell lines (obtained from the American Type Culture Collection, 10801 University Boulevard, Manessas, Va. 20110-2209, USA) were carried out. Standard 72-h MTT (thiazolyl blue; 3-[4,5-dimethylthiazol-2-yl]-2,5-diphenyltetrazolium bromide) assays were performed (Loveland et al, Biochem. Int., 1992, 27, 501; Haselsberger et al, Anti Cancer Drugs, 1996, 7, 331). In short: cells were seeded into 96-well plates according to doubling time and incubated overnight at 37° C. Test compounds were made up in DMSO and a ⅓ dilution series prepared in 100 μL cell media, added to cells (in triplicates) and incubated for 72 h at 37° C. MTT was made up as a stock of 5 mg/mL in cell media and filter-sterilised. Media was removed from cells followed by a wash with 200 μL PBS. MTT solution was then added at 20 μL per well and incubated in the dark at 37° C. for 4 h. MTT solution was removed and cells again washed with 200 μL PBS. MTT dye was solubilised with 200 μL per well of DMSO with agitation.
# U2OS = assay: 72-h MTT cellular proliferation assay, U2OS; format: cell-based; conditions: Homo sapiens, read-out: Anti-proliferative activity on tumour cell lines (MTT assay) U2OS IC50
# Experimental: as §1
# MCF-7 = assay: 72-h MTT cellular proliferation assay, MCF-7; format: cell-based; conditions: Homo sapiens, MCF7; MCF-7, 72 h; read-out: Anti-proliferative activity on tumour cell lines (MTT assay) MCF-7 IC50
# Experimental: as §1
# A549 = assay: 72-h MTT cellular proliferation assay, A549; format: cell-based; conditions: Homo sapiens, A549, 72 h; read-out: Anti-proliferative activity on tumour cell lines (MTT assay) A549 IC50
# Experimental: as §1
IC50 (human PLK1; 100 μM ATP) [µM],IC50 (HELA) [µM],melting point [°C],IC50 (U2OS) [µM],IC50 (MCF-7) [µM],IC50 (A549) [µM],IC50 (human PLK1; kinase assay at 10 μM ATP) [µM],SMILES
> 100,16 ± 10,229 to 230,35 ± 3,19 ± 16,21 ± 3,–,"NNC(=O)c1sc2c([N+](=O)[O-])cc(C(F)(F)F)cc2[n+]1[O-] [Compound 1c, 7-Nitro-3-oxy-5-trifluoromethyl-benzothiazole-2-carboxylic acid hydrazide]"
67 ± 7,14 ± 5,224 to 225,7.2 ± 3.6,6.1 ± 1.1,7.7 ± 2.9,–,"O=C(NO)c1sc2c([N+](=O)[O-])cc(F)cc2[n+]1[O-] [Compound 1g, 5-Fluoro-7-nitro-3-oxy-benzothiazole-2-carboxylic acid hydroxyamide]"
21,10.2 ± 3.3,–,9.5 ± 1.7,2.1 ± 1.5,10 ± 0.08,–,"N#Cc1sc2c([N+](=O)[O-])cc(C(F)(F)F)cc2[n+]1[O-] [Compound 1h, 7-Nitro-3-oxy-5-trifluoromethyl-benzothiazole-2-carbonitrile]"
10 ± 7,6.6 ± 0.8,–,6.7 ± 1.2,2 ± 2,4.2 ± 1.5,–,"N#Cc1cc([N+](=O)[O-])c2sc(C(N)=O)[n+]([O-])c2c1 [Compound 1d, 5-Cyano-7-nitro-3-oxy-benzothiazole-2-carboxylic acid amide]"
56 ± 19,12,–,16,–,5.2,–,"O=C(c1sc2c([N+](=O)[O-])cc(C(F)(F)F)cc2[n+]1[O-])N1CCCC1 [Compound 1b, (7-Nitro-3-oxy-5-trifluoromethyl-benzothiazol-2-yl)-pyrrolidin-1-yl-methanone]"
50 to 100,21 ± 4,230 to 231,29.4 ± 1.2,9 ± 1,13.3 ± 0.6,–,"O=C(NO)c1sc2c([N+](=O)[O-])cc(C(F)(F)F)cc2[n+]1[O-] [Compound 1e, 7-Nitro-3-oxy-5-trifluoromethyl-benzothiazole-2-carboxylic acid hydroxyamide]"
–,16 ± 8,–,47 ± 7,12.6 ± 6.3,24 ± 3,–,"NC(=O)c1sc2c([N+](=O)[O-])cc(C(F)(F)F)cc2[n+]1[O-] [Compound 1a, 7-Nitro-3-oxy-5-trifluoromethyl-benzothiazole-2-carboxylic acid amide]"
–,6 ± 0.8,255 to 256,8.2 ± 0.3,2.5 ± 1,4 ± 1.8,–,"NC(=O)c1sc2c([N+](=O)[O-])cc(SC(F)(F)F)cc2[n+]1[O-] [Compound 1j, 7-Nitro-3-oxy-5-trifluoromethylsulfanyl-benzothiazole-2-carboxylic acid amide]"
–,10.2 ± 2.4,–,11.5 ± 2,1.6 ± 0.2,3.9 ± 0.2,50 to 100,"NC(=O)c1sc2c([N+](=O)[O-])cc(F)cc2[n+]1[O-] [Compound 1f, 5-Fluoro-7-nitro-3-oxy-benzothiazole-2-carboxylic acid amide]"
39,56 ± 2,–,88 ± 10,35 ± 2,48 ± 5,–,"O=[N+]([O-])c1cc(C(F)(F)F)cc2c1sc(O)[n+]2[O-] [Compound 1i, 7-Nitro-3-oxy-5-trifluoromethyl-benzothiazol-2-ol]"
